Assay results as given in the NIST ThermoML archive (doi:10.1021/acs.jced.7b00201).
± gives the expanded uncertainty stated by the source.

Test: xn = mol fraction of the nth substance listed
Details: 100 kPa, Liquid; for mass density: Vibrating tube method; for viscosity: Falling or rolling sphere viscometry

OCC1CC1 [cyclopropylmethanol] + CCCCCCCCCCCC
Details | mass density [kg/m3] | viscosity [mPa·s]
318.15 K, x1 = 0.1135 | 736.06 ± 1 | –
318.15 K, x1 = 0.2127 | 742.4 ± 1 | –
318.15 K, x1 = 0.3059 | 749.51 ± 1 | –
318.15 K, x1 = 0.3804 | 756.13 ± 1 | –
318.15 K, x1 = 0.5067 | 769.82 ± 1 | –
318.15 K, x1 = 0.6019 | 782.78 ± 1 | –
318.15 K, x1 = 0.7011 | 799.61 ± 1 | –
318.15 K, x1 = 0.7921 | 819.33 ± 1 | –
318.15 K, x1 = 0.8991 | 850.32 ± 1 | –
318.15 K, x1 = 1 | 892.38 ± 1 | –
323.15 K, x1 = 0.1039 | – | 0.909 ± 0.019
323.15 K, x1 = 0.1135 | 732.26 ± 1 | –
323.15 K, x1 = 0.2032 | – | 0.927 ± 0.02
323.15 K, x1 = 0.2127 | 738.54 ± 1 | –
323.15 K, x1 = 0.3022 | – | 0.952 ± 0.02
323.15 K, x1 = 0.3059 | 745.6 ± 1 | –
323.15 K, x1 = 0.3804 | 752.18 ± 1 | –
323.15 K, x1 = 0.3997 | – | 0.979 ± 0.021
323.15 K, x1 = 0.4993 | – | 1.052 ± 0.022
323.15 K, x1 = 0.5067 | 765.79 ± 1 | –
323.15 K, x1 = 0.5994 | – | 1.125 ± 0.024
323.15 K, x1 = 0.6019 | 778.71 ± 1 | –
323.15 K, x1 = 0.7 | – | 1.22 ± 0.026
323.15 K, x1 = 0.7011 | 795.48 ± 1 | –
323.15 K, x1 = 0.7921 | 815.17 ± 1 | –
323.15 K, x1 = 0.797 | – | 1.346 ± 0.029
323.15 K, x1 = 0.8991 | 846.12 ± 1 | –
323.15 K, x1 = 0.9004 | – | 1.546 ± 0.033
323.15 K, x1 = 1 | 888.13 ± 1 | 1.843 ± 0.04
328.15 K, x1 = 0.1039 | – | 0.849 ± 0.018
328.15 K, x1 = 0.1135 | 728.45 ± 1 | –
328.15 K, x1 = 0.2032 | – | 0.864 ± 0.018
328.15 K, x1 = 0.2127 | 734.66 ± 1 | –
328.15 K, x1 = 0.3022 | – | 0.884 ± 0.019
328.15 K, x1 = 0.3059 | 741.65 ± 1 | –
328.15 K, x1 = 0.3804 | 748.19 ± 1 | –
328.15 K, x1 = 0.3997 | – | 0.907 ± 0.019
328.15 K, x1 = 0.4993 | – | 0.969 ± 0.021
328.15 K, x1 = 0.5067 | 761.73 ± 1 | –
328.15 K, x1 = 0.5994 | – | 1.031 ± 0.022
328.15 K, x1 = 0.6019 | 774.6 ± 1 | –
328.15 K, x1 = 0.7 | – | 1.112 ± 0.024
328.15 K, x1 = 0.7011 | 791.32 ± 1 | –
328.15 K, x1 = 0.7921 | 810.96 ± 1 | –
328.15 K, x1 = 0.797 | – | 1.221 ± 0.026
328.15 K, x1 = 0.8991 | 841.86 ± 1 | –
328.15 K, x1 = 0.9004 | – | 1.391 ± 0.03
328.15 K, x1 = 1 | 883.84 ± 1 | 1.646 ± 0.035
333.15 K, x1 = 0.1039 | – | 0.794 ± 0.017
333.15 K, x1 = 0.1135 | 724.62 ± 1 | –
333.15 K, x1 = 0.2032 | – | 0.806 ± 0.017
333.15 K, x1 = 0.2127 | 730.75 ± 1 | –
333.15 K, x1 = 0.3022 | – | 0.823 ± 0.018
333.15 K, x1 = 0.3059 | 737.68 ± 1 | –
333.15 K, x1 = 0.3804 | 744.17 ± 1 | –
333.15 K, x1 = 0.3997 | – | 0.843 ± 0.018
333.15 K, x1 = 0.4993 | – | 0.896 ± 0.019
333.15 K, x1 = 0.5067 | 757.64 ± 1 | –
333.15 K, x1 = 0.5994 | – | 0.948 ± 0.02
333.15 K, x1 = 0.6019 | 770.44 ± 1 | –
333.15 K, x1 = 0.7 | – | 1.018 ± 0.022
333.15 K, x1 = 0.7011 | 787.11 ± 1 | –
333.15 K, x1 = 0.7921 | 806.7 ± 1 | –
333.15 K, x1 = 0.797 | – | 1.111 ± 0.024
333.15 K, x1 = 0.8991 | 837.56 ± 1 | –
333.15 K, x1 = 0.9004 | – | 1.257 ± 0.027
333.15 K, x1 = 1 | 879.49 ± 1 | 1.476 ± 0.032
338.15 K, x1 = 0.1039 | – | 0.745 ± 0.016
338.15 K, x1 = 0.1135 | 720.77 ± 1 | –
338.15 K, x1 = 0.2032 | – | 0.755 ± 0.016
338.15 K, x1 = 0.2127 | 726.81 ± 1 | –
338.15 K, x1 = 0.3022 | – | 0.769 ± 0.016
338.15 K, x1 = 0.3059 | 733.68 ± 1 | –
338.15 K, x1 = 0.3804 | 740.12 ± 1 | –
338.15 K, x1 = 0.3997 | – | 0.785 ± 0.017
338.15 K, x1 = 0.4993 | – | 0.831 ± 0.018
338.15 K, x1 = 0.5067 | 753.5 ± 1 | –
338.15 K, x1 = 0.5994 | – | 0.875 ± 0.019
338.15 K, x1 = 0.6019 | 766.25 ± 1 | –
338.15 K, x1 = 0.7 | – | 0.935 ± 0.02
338.15 K, x1 = 0.7011 | 782.85 ± 1 | –
338.15 K, x1 = 0.7921 | 802.39 ± 1 | –
338.15 K, x1 = 0.797 | – | 1.015 ± 0.022
338.15 K, x1 = 0.8991 | 833.19 ± 1 | –
338.15 K, x1 = 0.9004 | – | 1.141 ± 0.024
338.15 K, x1 = 1 | 875.07 ± 1 | 1.328 ± 0.028
343.15 K, x1 = 0.1039 | – | 0.702 ± 0.015
343.15 K, x1 = 0.1135 | 716.91 ± 1 | –
343.15 K, x1 = 0.2032 | – | 0.709 ± 0.015
343.15 K, x1 = 0.2127 | 722.85 ± 1 | –
343.15 K, x1 = 0.3022 | – | 0.721 ± 0.015
343.15 K, x1 = 0.3059 | 729.64 ± 1 | –
343.15 K, x1 = 0.3804 | 736.03 ± 1 | –
343.15 K, x1 = 0.3997 | – | 0.734 ± 0.016
343.15 K, x1 = 0.4993 | – | 0.773 ± 0.017
343.15 K, x1 = 0.5067 | 749.32 ± 1 | –
343.15 K, x1 = 0.5994 | – | 0.811 ± 0.017
343.15 K, x1 = 0.6019 | 762 ± 1 | –
343.15 K, x1 = 0.7 | – | 0.862 ± 0.018
343.15 K, x1 = 0.7011 | 778.54 ± 1 | –
343.15 K, x1 = 0.7921 | 798.03 ± 1 | –
343.15 K, x1 = 0.797 | – | 0.931 ± 0.02
343.15 K, x1 = 0.8991 | 828.77 ± 1 | –
343.15 K, x1 = 0.9004 | – | 1.039 ± 0.022
343.15 K, x1 = 1 | 870.62 ± 1 | 1.201 ± 0.026
